Consider eleven compounds from US4503043A, “Substituted acyl derivatives of octahydro-1H-isoindole-1-carboxylic acids” (Warner-Lambert Company, priority 1982, dated 1985).

pIC50: −log10 of the molar value. Counter-ions that a name gives are not always drawn.

The assay concerns the target T1, guinea pig serum ACE (angiotensin converting enzyme) (Cavia porcellus, UniProt H0UWL7).
T1 construct: ACE from guinea pig serum; from tissue; host or cells: guinea pig serum
T1 sequence (H0UWL7 33-1302): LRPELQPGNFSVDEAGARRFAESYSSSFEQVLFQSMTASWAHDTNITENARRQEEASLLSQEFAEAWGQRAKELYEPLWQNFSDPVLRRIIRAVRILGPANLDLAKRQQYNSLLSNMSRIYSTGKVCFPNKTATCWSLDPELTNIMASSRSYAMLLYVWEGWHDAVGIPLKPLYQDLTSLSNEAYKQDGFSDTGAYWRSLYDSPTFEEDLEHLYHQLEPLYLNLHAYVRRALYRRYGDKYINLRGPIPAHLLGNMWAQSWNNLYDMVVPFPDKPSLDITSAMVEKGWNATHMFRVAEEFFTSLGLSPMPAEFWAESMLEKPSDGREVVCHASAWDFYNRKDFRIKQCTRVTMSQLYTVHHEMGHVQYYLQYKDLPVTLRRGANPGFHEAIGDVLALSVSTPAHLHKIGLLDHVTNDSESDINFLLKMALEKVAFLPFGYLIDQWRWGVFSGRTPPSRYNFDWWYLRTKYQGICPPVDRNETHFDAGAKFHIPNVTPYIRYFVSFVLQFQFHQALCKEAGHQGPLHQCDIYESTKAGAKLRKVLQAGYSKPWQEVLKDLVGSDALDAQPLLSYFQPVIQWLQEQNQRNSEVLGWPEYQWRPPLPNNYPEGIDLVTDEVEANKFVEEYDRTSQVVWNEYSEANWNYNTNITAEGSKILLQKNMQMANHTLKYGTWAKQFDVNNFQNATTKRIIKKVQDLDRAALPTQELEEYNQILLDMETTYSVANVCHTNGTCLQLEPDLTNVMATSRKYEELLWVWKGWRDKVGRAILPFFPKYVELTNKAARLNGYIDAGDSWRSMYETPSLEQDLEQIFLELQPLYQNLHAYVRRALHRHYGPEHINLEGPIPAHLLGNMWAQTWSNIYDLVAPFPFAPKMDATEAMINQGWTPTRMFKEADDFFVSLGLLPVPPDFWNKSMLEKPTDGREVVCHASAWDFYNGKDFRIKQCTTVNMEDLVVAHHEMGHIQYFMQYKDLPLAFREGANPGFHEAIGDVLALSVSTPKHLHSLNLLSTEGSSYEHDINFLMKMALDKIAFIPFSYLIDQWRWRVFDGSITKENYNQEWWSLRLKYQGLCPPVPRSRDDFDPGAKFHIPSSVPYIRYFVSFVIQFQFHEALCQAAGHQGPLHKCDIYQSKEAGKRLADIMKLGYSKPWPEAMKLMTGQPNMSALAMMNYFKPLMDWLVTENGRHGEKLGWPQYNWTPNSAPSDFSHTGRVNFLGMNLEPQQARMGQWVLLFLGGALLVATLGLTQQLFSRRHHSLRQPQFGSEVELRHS
Put plainly: In vitro ACE Assay (angiotensin converting enzyme inhibitory activity). The format is biochemical. Conditions: 10 min preincubation, substrate 3H-hippuryl-glycylglycine, 60 min at 37° C. As for the experimental part:
In vitro ACE Assay: Angiotensin converting enzyme (ACE) inhibitory activity is determined by assaying guinea pig serum ACE in the presence and absence of the test compound. ACE from guinea pig serum and the test compounds are preincubated for 10 minutes before the addition of the labelled substrate ^3 H-hippuryl-glycylglycine. After a 60 minute incubation at 37° C. the reaction is stopped by the addition of 0.1N HCl. ACE cleaves the hippuryl-glycyl bond to form the dipeptide glycyl-glycine and ^3 H-hippuric acid. The ^3 H-hippuric acid is then extracted with ethyl acetate and the ACE inhibition of a given sample calculated on the basis of the ^3 H-hippuric acid generated.
As usually defined, the pIC50 is the IC50 on a negative log10 scale, so that one unit is a factor of ten. The compound `CC(=O)SCCC(=O)N1CC2CCCCC2C1C(=O)O` (centres unmarked) [Example 1, 2-[3-(Acetylthio)-1-oxopropyl]octahydro-1H-isoindole-1-carboxylic acid] showed a pIC50 of 5.92.
With `O=C(O)C1C2CCCCC2CN1C(=O)CCS` (centres unmarked) [Example 2, 2-(3-Mercaptopropanoyl)octahydro-1H-isoindole-1-carboxylic acid, dicyclohexylamine salt], the pIC50 is 7.62.
The figure for `CC(=O)SCC(C)C(=O)N1CC2CCCCC2C1C(=O)O` (centres unmarked) [Example 3, 2-[3-(Acetylthio)-2-methyl-1-oxopropyl]octahydro-1H-isoindole-1-carboxylic acid] is 6.38; for `CC(CS)C(=O)N1CC2CCCCC2C1C(=O)O` (centres unmarked) [Example 4, 2-[3-Mercapto-2-methyl-1-oxopropyl]octahydro-1H-isoindole-1-carboxylic acid] it is 7.55.
Compound `CC(=O)SCCC(=O)N1C(=O)C2CCCCC2C1C(=O)O` (centres unmarked) [Example 5, 2-[3-Acetylthio-1-oxopropyl]octahydro-3-oxo-1H-isoindole-1-carboxylic acid, dicyclohexylamine salt] gave a negative logarithm of the IC50 (pIC50) of 6.18.
Compound `O=C(O)C1C2CCCCC2C(=O)N1C(=O)CCS` (centres unmarked) [Example 6, 2-[3-Mercapto-1-oxopropyl]octahydro-3-oxo-1H-isoindole-1-carboxylic acid, dicyclohexylamine salt] had a pIC50 of 7.89.
`CC(=O)SCC(C)C(=O)N1C(=O)C2CCCCC2C1C(=O)O` (centres unmarked) [Example 7, 2-[3-(Acetylthio)-2-methyl-1-oxopropyl]octahydro-3-oxo-1H-isoindole-1-carboxylic acid, dicyclohexylamine salt] gave a negative logarithm of the IC50 (pIC50) of 6.55. This pIC50 lies 1.34 log units lower than the previous one.
The figure for `CC(CS)C(=O)N1C(=O)C2CCCCC2C1C(=O)O` (centres unmarked) [Example 8, 2-[3-(Mercapto-2-methyl-1-oxopropyl]octahydro-3-oxo-1H-isoindole-1-carboxylic acid, dicyclohexylamine salt] is 7.85.
As to `CCOC(=O)C(CCc1ccccc1)NC(C)C(=O)N1CC2CCCCC2C1C(=O)O` (centres unmarked) [Example 12, 2-[2-[(1-Carbethoxy-3-phenylpropyl)amino]-1-oxopropyl]-octahydro-1H-isoindole-1-carboxylic acid, hydrochloride], the negative logarithm of the IC50 (pIC50) is 6.77.
For `CC(NC(CCc1ccccc1)C(=O)O)C(=O)N1CC2CCCCC2C1C(=O)O` (centres unmarked) [Example 13, 2-[2-[(1-Carboxy-3-phenylpropyl)amino]-1-oxopropyl]-octahydro-1H-isoindole-1-carboxylic acid], the negative-log IC50 (pIC50) was 8.59.
As to `CCOC(=O)[C@H](CCc1ccccc1)N[C@@H](C)C(=O)N1C(=O)C2CCCCC2C1C(=O)O` (some centres unmarked) [Example 14, 2-[2-[(1-carbethoxy-3-phenylpropyl)amino]-1-oxopropyl]-octahydro-3-oxo-1H-isoindole-1-carboxylic acid, hydrochloride], the negative-log IC50 (pIC50) was 6.47. Compared with the last compound, the pIC50 is 2.12 log units lower.
